Results on two molecules are retold here after US5431896A, “Microbial immunoregulant” (Merck & Co., Inc., priority 1992, dated 1995).

Several values for one entry are separate records, joined by “and”; a condition that tells them apart may be missing. Equal values may be shown once. Entries after “also recorded” stand apart in the source; their conditions may differ. Read-outs that look alike come from different tables or passages of the source.

One data set has as its system mouse T lymphocytes. The data set can be described thus: T-cell proliferation assay (ionomycin plus PMA induced T-cell stimulation, tritiated thymidine uptake). The following applies: for immunosuppressive activity by the T-cell proliferation assay: qualitative statement. It is filed as cell-based, C57B1/6 mice. The method, then: The principle of this assay is to measure the proliferation of mouse T lymphocytes stimulated with the combination of ionomycin plus PMA. A positive sample in this assay will inhibit T-cell proliferation, as indicated by reduced tritiated thymidine uptake.
Cells were pelleted by centrifugation at 1500 rpm for 8 minutes. Contaminating red cells were removed by treating the pellet with ammonium chloride lysing buffer (GIBCO) for 2 minutes at 4° C. Cold medium was added and cells were again centrifuged at 1500 rpm for 8 minutes. T lymphocytes were then isolated by separation of the cell suspension on nylon wool columns as follows: Nylon wool columns were prepared by packing approximately 4 grams of washed and dried nylon wool into 20 ml plastic syringes. The columns were sterilized by autoclaving at 250° F. for 30 minutes. Nylon wool columns were wetted with warm (37° C.) culture medium and rinsed with the same medium. Washed spleen cells resuspended in warm medium were slowly applied to the nylon wool. The columns were then incubated in an upright position at 37° C. for 1 hour. Non-adherent T lymphocytes were eluted from the columns with warm culture medium and the cell suspensions were spun as above.
The cell suspension was immediately distributed into 96 well flat-bottom microculture plates (Costar) at 200 μl/well. […] The proliferation of T lymphocytes was assessed by measurement of tritiated thymidine incorporation. After 44 hours of culturing, the cells were pulse-labelled with 2 μCi/well of tritiated thymidine (NEN, Cambridge, Mass.). After another 4 hours of incubation, cultures were harvested on glass fiber filters using a multiple sample harvester. Radioactivity of filter discs corresponding to individual wells was measured by standard liquid scintillation counting methods (Betacounter). Mean counts per minute of replicate wells were calculated and the results expressed as percent inhibition of tritiated thymidine uptake (proliferation) as follows: [formula]

The conditions of data set [1]: reputed; EPO Publication No. 0184162; cited from earlier work.
A short description of the next data set: Solubility. The following applies: methanol. In kind it is physicochemical.

As to `C=CC[C@@H]1/C=C(\C)C[C@H](C)C[C@H](OC)[C@H]2O[C@@](O)(C(=O)C(=O)N3CCCC[C@H]3C(=O)O[C@H](/C(C)=C/[C@@H]3CC[C@@H](O)[C@H](OC)C3)[C@H](C)[C@@H](O)CC1=O)[C@H](C)C[C@@H]2OC` [FK-506, reference compound], in the data set with mouse T lymphocytes (Mus musculus, T-lymphocyte, 48 h, read-out: inhibition of T-cell proliferation by standard), the inhibition at 0.01 µg/mL was found to be 99%. Also, in data set [1], the “potency relative to cyclosporin” value is on record as 100 times.
Turning to `CO[C@H]1C[C@@H](C)C/C(C)=C/[C@@H](C)C(=O)C[C@H](O)[C@@H](C)[C@@H](/C(C)=C/[C@@H]2CC[C@@H](O)[C@H](O)C2)OC(=O)[C@@H]2CCCCN2C(=O)C(=O)[C@]2(O)O[C@H]1[C@@H](OC)C[C@H]2C` [L-687,819], the IC50 in the data set with mouse T lymphocytes (Mus musculus, T-lymphocyte, 48 h, read-out: IC50 (inhibition of T-cell proliferation)) is 0.007 µg/mL and 9.17 nM. Moreover, in the data set with mouse T lymphocytes (Mus musculus, T-lymphocyte, L-687,819 0.11 ng/ml, 48 h), the inhibition at 0.00011 µg/mL was determined as 9.5%. Further, the inhibition at 0.00026 µg/mL in the data set on mouse T lymphocytes (Mus musculus, T-lymphocyte, L-687,819 0.26 ng/ml, 48 h) was 9.1%. For the same molecule, the inhibition at 0.00058 µg/mL in the data set on mouse T lymphocytes (Mus musculus, T-lymphocyte, L-687,819 0.58 ng/ml, 48 h) worked out at 0%. Further, in the data set with mouse T lymphocytes (Mus musculus, T-lymphocyte, L-687,819 1.3 ng/ml, 48 h), the inhibition at 0.0013 µg/mL amounted to 0%. Besides, the inhibition at 0.0029 µg/mL in the data set with mouse T lymphocytes (Mus musculus, T-lymphocyte, L-687,819 2.9 ng/ml, 48 h) turned out to be 0%. Moreover, the inhibition at 0.0044 µg/mL in the data set on mouse T lymphocytes (Mus musculus, T-lymphocyte, L-687,819 4.4 ng/ml, 48 h) was 15.9%. Further, the inhibition at 0.0066 µg/mL in the data set with mouse T lymphocytes (Mus musculus, T-lymphocyte, L-687,819 6.6 ng/ml, 48 h) was found to be 51.3%. Further, in the data set with mouse T lymphocytes (Mus musculus, T-lymphocyte, L-687,819 10 ng/ml, 48 h, read-out: % Inhibition of T-cell proliferation), the inhibition at 0.01 µg/mL came to 76.1%. Besides, in the data set on mouse T lymphocytes (Mus musculus, T-lymphocyte, L-687,819 100 ng/ml, 48 h), the inhibition at 0.1 µg/mL was determined as 98.8%. The “Inhibition of proliferation on addition of recombinant human IL2” value in the data set on mouse T lymphocytes (addition of 50 units/ml recombinant human IL2) is “reversed”. The results for the “immunosuppressive activity by the T-cell proliferation assay” value with mouse T lymphocytes and in the data set with mouse T lymphocytes (listed as minor component) were “positive immunosuppressive activity; also recorded: positive inhibition of T-cell activation” and “shown to possess immunosuppressive activity”, respectively. In addition, the Solubility entry in the data set “Solubility” is recorded as “Solubility in methanol”.
